Test results taken from PMC4685510, “A Cell Biologist’s Field Guide to Aurora Kinase Inhibitors” (Frontiers in Oncology, 2015).

Assays:
Assay in all cases: biochemical
Format in all cases: biochemical
[1] = target: T1, 363 human kinases (including Aurora A/B/C) (Homo sapiens, UniProt Q06418); details: TYRO3/SKY; for remaining activity at 0.1 µM: 100 nM; for remaining activity at 0.1 µM / remaining activity at 0.5 µM: read-out: % Enzyme Activity (relative to DMSO controls)
T1 sequence (Q06418 41-890): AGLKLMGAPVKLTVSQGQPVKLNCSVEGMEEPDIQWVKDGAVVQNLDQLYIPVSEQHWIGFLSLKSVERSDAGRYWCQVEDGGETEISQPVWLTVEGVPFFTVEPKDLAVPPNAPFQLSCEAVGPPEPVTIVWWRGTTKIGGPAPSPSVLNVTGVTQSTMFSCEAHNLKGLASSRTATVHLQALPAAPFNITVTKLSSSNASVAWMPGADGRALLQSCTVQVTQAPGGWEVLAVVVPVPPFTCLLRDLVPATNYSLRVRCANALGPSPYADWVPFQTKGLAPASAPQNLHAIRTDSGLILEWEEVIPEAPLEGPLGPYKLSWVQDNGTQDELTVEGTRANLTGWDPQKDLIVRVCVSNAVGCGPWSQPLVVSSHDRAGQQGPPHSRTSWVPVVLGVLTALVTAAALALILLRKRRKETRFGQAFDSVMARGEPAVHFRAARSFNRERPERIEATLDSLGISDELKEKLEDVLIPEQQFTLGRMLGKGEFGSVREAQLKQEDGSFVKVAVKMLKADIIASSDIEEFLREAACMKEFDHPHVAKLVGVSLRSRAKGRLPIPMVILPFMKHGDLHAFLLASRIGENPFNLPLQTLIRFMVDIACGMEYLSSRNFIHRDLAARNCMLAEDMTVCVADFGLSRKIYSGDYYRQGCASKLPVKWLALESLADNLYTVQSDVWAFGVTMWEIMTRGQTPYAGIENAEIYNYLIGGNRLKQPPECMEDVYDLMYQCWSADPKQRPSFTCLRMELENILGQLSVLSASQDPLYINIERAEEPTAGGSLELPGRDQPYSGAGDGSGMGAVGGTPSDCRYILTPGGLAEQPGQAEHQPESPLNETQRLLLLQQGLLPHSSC
From the text: (§1) However, the Aurora A/B selectivity ratios derived from our in vitro and in vivo data can be compared to prioritize inhibitors.

[2] = target: 363 human kinases (including Aurora A/B/C) (Homo sapiens, UniProt P07333); details: FMS; for remaining activity at 0.1 µM: 100 nM; for remaining activity at 0.1 µM / remaining activity at 0.5 µM: read-out: % Enzyme Activity (relative to DMSO controls)
From the text: as §1

[3] = target: T2, 363 human kinases (including Aurora A/B/C) (Homo sapiens, UniProt Q92630); details: DYRK2, [ATP] 5 µM; for remaining activity at 0.1 µM: 100 nM; for remaining activity at 0.1 µM / remaining activity at 0.5 µM: read-out: % Enzyme Activity (relative to DMSO controls)
T2 sequence (Q92630 1-601): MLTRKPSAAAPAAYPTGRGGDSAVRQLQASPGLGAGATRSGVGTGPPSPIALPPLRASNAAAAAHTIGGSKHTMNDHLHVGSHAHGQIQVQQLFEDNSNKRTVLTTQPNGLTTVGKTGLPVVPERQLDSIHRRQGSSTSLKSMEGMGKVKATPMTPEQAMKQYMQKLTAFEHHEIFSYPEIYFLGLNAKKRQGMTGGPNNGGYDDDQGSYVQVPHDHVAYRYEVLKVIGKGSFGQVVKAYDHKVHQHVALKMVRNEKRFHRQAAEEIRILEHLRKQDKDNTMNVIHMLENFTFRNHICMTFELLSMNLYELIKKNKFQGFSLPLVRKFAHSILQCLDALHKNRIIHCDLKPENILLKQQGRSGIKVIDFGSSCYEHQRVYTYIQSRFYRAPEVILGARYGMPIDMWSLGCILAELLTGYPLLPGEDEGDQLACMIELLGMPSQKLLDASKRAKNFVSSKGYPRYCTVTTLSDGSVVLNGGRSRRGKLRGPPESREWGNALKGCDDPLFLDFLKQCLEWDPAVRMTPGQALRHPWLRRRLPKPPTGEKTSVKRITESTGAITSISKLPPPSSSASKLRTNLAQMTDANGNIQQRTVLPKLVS
From the text: as §1

[4] = target: 363 human kinases (including Aurora A/B/C) (Homo sapiens, UniProt Q9NYY3); details: PLK2; for remaining activity at 0.1 µM: 100 nM; for remaining activity at 0.1 µM / remaining activity at 0.5 µM: read-out: % Enzyme Activity (relative to DMSO controls)
From the text: as §1

[5] = target: 363 human kinases (including Aurora A/B/C) (Homo sapiens, UniProt P24723); details: PKCeta; for remaining activity at 0.1 µM: 100 nM; for remaining activity at 0.1 µM / remaining activity at 0.5 µM: read-out: % Enzyme Activity (relative to DMSO controls)
From the text: as §1

[6] = target: 363 human kinases (including Aurora A/B/C) (Homo sapiens, UniProt Q16539); details: P38a/MAPK14; for remaining activity at 0.1 µM: 100 nM; for remaining activity at 0.1 µM / remaining activity at 0.5 µM: read-out: % Enzyme Activity (relative to DMSO controls)
From the text: as §1

[7] = target: 363 human kinases (including Aurora A/B/C) (Homo sapiens, UniProt Q86V86); details: PIM3; for remaining activity at 0.1 µM: 100 nM; for remaining activity at 0.1 µM / remaining activity at 0.5 µM: read-out: % Enzyme Activity (relative to DMSO controls)
From the text: as §1

[8] = target: 363 human kinases (including Aurora A/B/C) (Homo sapiens, UniProt P19784); details: CK2a2, [ATP] 30 µM; for remaining activity at 0.1 µM: 100 nM; for remaining activity at 0.1 µM / remaining activity at 0.5 µM: read-out: % Enzyme Activity (relative to DMSO controls)
Sequence of 363 human kinases (including Aurora A/B/C) (Homo sapiens, UniProt P19784) (P19784 whole entry): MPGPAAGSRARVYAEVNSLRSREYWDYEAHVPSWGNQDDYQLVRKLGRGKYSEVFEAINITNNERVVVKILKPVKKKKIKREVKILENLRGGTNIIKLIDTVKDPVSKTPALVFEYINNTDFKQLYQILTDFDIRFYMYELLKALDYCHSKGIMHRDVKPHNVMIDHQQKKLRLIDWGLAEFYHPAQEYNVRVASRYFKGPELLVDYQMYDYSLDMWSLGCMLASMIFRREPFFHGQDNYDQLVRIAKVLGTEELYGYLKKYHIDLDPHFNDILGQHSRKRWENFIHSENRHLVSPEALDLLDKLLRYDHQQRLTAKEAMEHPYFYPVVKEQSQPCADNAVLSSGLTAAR
From the text: as §1

Sequence of 363 human kinases (including Aurora A/B/C) (Homo sapiens, UniProt Q16539) (Q16539 whole entry): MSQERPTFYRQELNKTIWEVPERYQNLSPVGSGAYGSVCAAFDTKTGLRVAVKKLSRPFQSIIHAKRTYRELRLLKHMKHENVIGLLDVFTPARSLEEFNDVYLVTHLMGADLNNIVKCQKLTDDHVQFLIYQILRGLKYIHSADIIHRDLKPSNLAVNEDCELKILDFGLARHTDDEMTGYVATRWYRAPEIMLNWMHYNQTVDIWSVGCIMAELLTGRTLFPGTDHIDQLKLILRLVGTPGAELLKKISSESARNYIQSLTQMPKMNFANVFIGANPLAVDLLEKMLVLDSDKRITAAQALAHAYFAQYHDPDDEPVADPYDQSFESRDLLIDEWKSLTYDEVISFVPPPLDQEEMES
Sequence of 363 human kinases (including Aurora A/B/C) (Homo sapiens, UniProt Q9NYY3) (Q9NYY3 whole entry): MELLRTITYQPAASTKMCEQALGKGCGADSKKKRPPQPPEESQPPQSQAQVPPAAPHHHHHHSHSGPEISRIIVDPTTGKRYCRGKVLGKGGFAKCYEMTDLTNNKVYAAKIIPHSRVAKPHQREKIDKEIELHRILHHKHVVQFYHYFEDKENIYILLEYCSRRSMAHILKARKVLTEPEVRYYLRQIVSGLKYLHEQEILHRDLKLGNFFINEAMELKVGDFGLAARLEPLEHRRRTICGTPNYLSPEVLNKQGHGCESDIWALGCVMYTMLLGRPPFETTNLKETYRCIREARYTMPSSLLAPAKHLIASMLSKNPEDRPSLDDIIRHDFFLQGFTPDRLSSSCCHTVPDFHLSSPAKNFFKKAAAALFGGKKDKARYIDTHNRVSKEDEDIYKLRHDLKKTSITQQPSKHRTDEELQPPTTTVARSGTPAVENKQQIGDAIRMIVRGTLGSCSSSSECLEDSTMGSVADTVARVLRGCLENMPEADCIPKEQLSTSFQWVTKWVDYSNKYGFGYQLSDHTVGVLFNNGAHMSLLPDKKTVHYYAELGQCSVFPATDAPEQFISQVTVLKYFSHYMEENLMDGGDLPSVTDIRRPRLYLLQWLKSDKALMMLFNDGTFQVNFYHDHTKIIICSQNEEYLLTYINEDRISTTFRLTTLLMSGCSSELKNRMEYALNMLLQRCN
Sequence of 363 human kinases (including Aurora A/B/C) (Homo sapiens, UniProt P07333) (P07333 20-972): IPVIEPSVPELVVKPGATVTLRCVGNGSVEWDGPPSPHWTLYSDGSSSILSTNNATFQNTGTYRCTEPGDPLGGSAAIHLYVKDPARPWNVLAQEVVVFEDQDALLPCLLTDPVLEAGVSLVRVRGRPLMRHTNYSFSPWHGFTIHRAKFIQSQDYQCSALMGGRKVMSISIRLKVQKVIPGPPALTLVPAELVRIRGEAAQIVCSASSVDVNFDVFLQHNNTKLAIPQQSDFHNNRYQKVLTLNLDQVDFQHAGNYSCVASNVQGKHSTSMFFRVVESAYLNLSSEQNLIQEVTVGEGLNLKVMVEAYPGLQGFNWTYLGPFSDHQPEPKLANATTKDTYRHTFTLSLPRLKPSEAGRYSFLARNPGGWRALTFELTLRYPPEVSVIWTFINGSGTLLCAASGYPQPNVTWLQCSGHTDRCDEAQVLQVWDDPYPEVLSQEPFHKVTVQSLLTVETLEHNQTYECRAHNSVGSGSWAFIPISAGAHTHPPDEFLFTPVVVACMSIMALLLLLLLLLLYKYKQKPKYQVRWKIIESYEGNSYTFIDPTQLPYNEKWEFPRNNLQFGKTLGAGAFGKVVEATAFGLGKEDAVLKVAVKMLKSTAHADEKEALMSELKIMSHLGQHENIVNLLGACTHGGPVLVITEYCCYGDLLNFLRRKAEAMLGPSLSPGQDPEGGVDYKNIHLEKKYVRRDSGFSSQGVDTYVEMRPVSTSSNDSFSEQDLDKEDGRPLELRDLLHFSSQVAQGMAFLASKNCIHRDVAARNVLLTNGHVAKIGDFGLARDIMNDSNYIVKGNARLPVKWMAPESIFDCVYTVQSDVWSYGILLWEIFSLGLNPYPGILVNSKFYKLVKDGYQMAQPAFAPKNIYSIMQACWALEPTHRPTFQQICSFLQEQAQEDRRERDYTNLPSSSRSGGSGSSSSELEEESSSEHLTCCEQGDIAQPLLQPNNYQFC
Sequence of 363 human kinases (including Aurora A/B/C) (Homo sapiens, UniProt P24723) (P24723 whole entry): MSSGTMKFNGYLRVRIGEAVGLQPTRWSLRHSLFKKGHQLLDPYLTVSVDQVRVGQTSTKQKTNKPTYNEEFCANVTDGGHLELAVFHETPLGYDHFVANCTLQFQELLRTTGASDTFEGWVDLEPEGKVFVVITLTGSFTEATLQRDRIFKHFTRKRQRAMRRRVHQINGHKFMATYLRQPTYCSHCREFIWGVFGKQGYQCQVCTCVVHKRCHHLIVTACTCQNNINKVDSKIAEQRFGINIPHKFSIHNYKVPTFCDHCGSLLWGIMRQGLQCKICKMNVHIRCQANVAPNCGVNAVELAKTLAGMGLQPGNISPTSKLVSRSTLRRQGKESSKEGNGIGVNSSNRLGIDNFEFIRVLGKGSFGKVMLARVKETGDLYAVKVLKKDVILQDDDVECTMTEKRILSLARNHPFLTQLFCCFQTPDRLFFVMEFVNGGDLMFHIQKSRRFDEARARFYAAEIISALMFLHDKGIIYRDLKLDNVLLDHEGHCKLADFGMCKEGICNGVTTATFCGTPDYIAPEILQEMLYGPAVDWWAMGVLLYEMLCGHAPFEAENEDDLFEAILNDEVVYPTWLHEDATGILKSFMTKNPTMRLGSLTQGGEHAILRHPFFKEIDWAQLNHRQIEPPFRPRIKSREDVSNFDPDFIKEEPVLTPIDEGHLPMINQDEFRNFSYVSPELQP

Row | SMILES | remaining activity at 0.1 µM [1] | remaining activity at 0.1 µM [2] | remaining activity at 0.1 µM [3] | remaining activity at 0.1 µM [4] | remaining activity at 0.1 µM [5] | remaining activity at 0.1 µM [6] | remaining activity at 0.1 µM [7] | remaining activity at 0.1 µM [8] | remaining activity at 0.5 µM ([1]; 500 nM) | remaining activity at 0.5 µM ([2]; 500 nM) | remaining activity at 0.5 µM ([3]; 500 nM) | remaining activity at 0.5 µM ([4]; 500 nM) | remaining activity at 0.5 µM ([5]; 500 nM) | remaining activity at 0.5 µM ([6]; 500 nM) | remaining activity at 0.5 µM ([7]; 500 nM) | remaining activity at 0.5 µM ([8]; 500 nM) | further results
1 | CCn1cc(-c2ccnc3[nH]c(-c4cccc(CN(C)C)c4)cc23)c(-c2ccc(NC(=O)N(C)C)cc2)n1 [GSK1070916] | 83.8% | 80.2% | 108% | 91.2% | 103% | 93.6% | 106% | 89.1% | – | – | – | – | – | – | – | – | –
2 | O=C(O)[C@]1(Cc2cccc(Nc3nccs3)n2)CC[C@@H](Oc2cccc(Cl)c2F)CC1 [MK-5108] | 75.9% | 78.2% | 82% | 88.8% | 134% | 95.2% | 93.8% | 87.2% | 40.6% | 51.9% | 56.2% | 85.1% | 115% | 101% | 62.2% | 86.5% | –
3 | O=C(c1cccc(Cl)c1F)N1CCN(Cc2cccc(Nc3nccs3)n2)CC1 [MK-8745] | – | – | – | – | – | – | – | – | 29.3% | 95% | 147% | 81.9% | 166% | 95.3% | 96% | 85.8% | % Enzyme Activity (relative to DMSO controls) ([1]; 500 nM): 27.58%; % Enzyme Activity (relative to DMSO controls) ([2]; 500 nM): 92.34%; % Enzyme Activity (relative to DMSO controls) ([3]; 500 nM): 138.31%; % Enzyme Activity (relative to DMSO controls) ([4]; 500 nM): 81.10%; % Enzyme Activity (relative to DMSO controls) ([5]; 500 nM): 164.83%; % Enzyme Activity (relative to DMSO controls) ([6]; 500 nM): 95.14%; % Enzyme Activity (relative to DMSO controls) ([7]; 500 nM): 94.49%; % Enzyme Activity (relative to DMSO controls) ([8]; 500 nM): 85.44%
